Results as given in article PMC8213057, “Targeting ALK2: An Open Science Approach to Developing Therapeutics for the Treatment of Diffuse Intrinsic Pontine Glioma” (Journal of Medicinal Chemistry, 2020).
Values joined by “and” are separate entries in the source; they are usually repeats but may differ in a detail not shown here. Equal entries are not always repeated.

Assays:
AURORA B = AURORA B (Homo sapiens, UniProt Q96GD4); conditions: 1 μM; Run 1, Run 2
CK2a2 = CK2a2 (Homo sapiens, UniProt P19784); conditions: 1 μM; Run 1, Run 2
Chain of CK2a2 (P19784 whole entry): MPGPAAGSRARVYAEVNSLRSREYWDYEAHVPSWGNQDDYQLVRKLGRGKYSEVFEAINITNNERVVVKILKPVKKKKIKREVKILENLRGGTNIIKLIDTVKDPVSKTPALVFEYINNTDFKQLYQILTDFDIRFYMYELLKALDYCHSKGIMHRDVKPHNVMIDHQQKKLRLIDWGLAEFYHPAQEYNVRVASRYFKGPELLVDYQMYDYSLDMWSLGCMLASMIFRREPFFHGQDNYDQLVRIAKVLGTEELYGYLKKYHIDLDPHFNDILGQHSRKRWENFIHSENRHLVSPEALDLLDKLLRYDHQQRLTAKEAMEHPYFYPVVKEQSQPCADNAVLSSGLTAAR

EPHB4 = target: T1, EPHB4 (Homo sapiens, UniProt P54760); conditions: 1 μM; Run 1, Run 2
T1 sequence (P54760 16-987): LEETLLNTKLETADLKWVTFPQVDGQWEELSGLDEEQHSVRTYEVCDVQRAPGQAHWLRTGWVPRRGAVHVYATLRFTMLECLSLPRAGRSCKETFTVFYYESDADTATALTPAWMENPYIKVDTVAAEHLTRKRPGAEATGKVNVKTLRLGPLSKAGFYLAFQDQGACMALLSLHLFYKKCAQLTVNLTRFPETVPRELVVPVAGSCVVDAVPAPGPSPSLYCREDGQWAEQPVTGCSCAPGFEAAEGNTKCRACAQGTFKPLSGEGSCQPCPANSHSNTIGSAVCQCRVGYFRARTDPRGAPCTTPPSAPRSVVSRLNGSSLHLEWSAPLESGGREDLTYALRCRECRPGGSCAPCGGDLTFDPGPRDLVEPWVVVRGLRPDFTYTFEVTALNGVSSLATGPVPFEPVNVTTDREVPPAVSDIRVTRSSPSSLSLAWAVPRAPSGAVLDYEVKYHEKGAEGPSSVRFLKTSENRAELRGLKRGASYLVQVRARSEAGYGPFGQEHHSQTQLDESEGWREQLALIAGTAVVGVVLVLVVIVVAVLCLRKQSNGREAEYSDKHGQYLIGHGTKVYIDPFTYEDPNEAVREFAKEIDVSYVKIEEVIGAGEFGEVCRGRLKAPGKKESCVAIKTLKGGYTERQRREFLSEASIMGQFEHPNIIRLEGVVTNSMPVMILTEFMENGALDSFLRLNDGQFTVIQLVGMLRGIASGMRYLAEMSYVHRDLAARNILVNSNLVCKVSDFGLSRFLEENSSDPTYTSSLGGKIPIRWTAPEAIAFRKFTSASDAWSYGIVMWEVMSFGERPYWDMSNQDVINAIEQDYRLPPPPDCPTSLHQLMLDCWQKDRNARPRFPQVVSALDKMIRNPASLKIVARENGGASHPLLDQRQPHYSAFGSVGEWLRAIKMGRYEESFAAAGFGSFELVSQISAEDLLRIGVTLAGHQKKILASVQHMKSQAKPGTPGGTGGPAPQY

MARK3 = MARK3 (Homo sapiens, UniProt P27448); conditions: 1 μM; Run 1, Run 2
Chain of MARK3 (P27448 whole entry): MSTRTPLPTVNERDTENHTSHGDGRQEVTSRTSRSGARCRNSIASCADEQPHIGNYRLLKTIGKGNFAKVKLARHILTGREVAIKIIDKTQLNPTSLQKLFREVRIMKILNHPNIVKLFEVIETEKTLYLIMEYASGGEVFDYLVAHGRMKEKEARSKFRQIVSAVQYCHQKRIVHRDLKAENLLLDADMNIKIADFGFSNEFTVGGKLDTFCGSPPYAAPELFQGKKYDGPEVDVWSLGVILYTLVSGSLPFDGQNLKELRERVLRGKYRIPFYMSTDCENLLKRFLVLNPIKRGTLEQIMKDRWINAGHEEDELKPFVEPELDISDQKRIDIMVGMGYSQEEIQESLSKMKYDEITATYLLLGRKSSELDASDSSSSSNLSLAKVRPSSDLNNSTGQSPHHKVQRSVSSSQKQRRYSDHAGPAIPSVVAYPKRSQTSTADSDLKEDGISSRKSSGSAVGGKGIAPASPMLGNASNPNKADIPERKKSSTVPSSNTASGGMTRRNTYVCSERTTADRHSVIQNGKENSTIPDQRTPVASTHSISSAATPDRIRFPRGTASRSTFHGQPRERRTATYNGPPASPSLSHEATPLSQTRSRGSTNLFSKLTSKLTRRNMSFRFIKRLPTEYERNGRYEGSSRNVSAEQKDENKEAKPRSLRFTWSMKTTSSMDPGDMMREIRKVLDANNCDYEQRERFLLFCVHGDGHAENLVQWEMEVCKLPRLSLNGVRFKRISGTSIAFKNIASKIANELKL

PKAcg = PKAcg (Homo sapiens, UniProt P22612); conditions: 1 μM; Run 1, Run 2
Chain of PKAcg (P22612 whole entry): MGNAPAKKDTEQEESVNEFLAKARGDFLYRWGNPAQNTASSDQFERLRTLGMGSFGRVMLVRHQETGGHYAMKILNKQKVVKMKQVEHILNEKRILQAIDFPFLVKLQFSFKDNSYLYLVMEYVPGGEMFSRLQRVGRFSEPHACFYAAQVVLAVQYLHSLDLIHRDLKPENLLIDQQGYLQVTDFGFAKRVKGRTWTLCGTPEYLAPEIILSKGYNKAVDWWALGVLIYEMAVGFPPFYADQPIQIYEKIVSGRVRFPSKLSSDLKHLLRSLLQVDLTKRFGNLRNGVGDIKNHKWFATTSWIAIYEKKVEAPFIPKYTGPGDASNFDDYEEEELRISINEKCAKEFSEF

PKCb1 = PKCb1 (Homo sapiens, UniProt P05771); conditions: 1 μM; Run 1, Run 2
Chain of PKCb1 (P05771 whole entry): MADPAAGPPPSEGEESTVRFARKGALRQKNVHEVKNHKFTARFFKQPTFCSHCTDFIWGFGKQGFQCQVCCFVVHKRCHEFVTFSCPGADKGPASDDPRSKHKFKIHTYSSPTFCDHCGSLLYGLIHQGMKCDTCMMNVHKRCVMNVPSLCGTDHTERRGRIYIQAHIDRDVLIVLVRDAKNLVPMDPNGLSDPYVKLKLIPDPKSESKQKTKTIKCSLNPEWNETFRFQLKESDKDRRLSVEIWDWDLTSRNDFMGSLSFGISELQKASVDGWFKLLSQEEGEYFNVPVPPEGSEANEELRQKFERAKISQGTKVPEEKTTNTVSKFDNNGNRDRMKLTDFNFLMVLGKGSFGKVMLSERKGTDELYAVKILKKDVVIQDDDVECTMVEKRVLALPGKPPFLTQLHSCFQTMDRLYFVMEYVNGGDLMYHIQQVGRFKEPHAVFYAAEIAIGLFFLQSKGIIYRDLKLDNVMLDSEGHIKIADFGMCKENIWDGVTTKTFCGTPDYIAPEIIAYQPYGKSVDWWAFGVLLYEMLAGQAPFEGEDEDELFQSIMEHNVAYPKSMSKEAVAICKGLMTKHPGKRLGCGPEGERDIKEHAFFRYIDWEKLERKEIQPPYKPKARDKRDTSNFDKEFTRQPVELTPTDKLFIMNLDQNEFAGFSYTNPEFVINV

SIK3 [1] = target: T2, SIK3 (Homo sapiens, UniProt Q9Y2K2); conditions: 1 μM; Run 1, Run 2
T2 sequence (Q9Y2K2 whole entry): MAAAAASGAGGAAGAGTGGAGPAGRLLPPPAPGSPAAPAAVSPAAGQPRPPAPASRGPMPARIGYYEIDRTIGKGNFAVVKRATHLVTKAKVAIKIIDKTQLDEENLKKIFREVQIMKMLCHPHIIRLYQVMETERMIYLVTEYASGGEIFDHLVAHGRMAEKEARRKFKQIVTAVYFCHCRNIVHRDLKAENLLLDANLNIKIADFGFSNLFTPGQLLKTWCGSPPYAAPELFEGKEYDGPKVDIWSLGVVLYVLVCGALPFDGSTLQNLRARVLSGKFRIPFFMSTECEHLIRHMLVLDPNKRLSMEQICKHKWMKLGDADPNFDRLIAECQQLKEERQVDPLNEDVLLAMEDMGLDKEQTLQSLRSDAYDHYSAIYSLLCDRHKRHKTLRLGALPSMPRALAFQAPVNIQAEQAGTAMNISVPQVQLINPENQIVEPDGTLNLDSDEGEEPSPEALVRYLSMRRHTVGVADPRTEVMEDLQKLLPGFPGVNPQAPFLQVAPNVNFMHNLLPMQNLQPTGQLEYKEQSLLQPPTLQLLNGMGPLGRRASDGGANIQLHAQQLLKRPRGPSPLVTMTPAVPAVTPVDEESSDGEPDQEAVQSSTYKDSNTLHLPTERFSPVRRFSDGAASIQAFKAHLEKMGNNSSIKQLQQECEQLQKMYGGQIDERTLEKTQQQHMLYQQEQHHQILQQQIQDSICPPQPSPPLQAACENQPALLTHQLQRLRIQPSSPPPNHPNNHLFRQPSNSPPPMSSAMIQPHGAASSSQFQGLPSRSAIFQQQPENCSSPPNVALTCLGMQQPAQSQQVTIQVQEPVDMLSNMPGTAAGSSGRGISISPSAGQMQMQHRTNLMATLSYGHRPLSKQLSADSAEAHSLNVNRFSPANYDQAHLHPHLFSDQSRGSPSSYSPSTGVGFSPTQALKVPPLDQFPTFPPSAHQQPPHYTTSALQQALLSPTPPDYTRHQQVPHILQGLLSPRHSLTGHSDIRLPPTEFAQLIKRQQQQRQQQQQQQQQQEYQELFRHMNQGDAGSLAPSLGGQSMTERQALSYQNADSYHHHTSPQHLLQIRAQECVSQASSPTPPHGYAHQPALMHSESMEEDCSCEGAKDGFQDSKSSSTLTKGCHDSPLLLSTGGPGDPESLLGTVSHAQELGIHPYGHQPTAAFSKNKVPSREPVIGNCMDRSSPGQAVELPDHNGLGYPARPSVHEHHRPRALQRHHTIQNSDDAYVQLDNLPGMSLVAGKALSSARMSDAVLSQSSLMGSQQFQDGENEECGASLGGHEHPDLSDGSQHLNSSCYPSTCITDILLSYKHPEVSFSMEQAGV

CDC7/DBF4 = CDC7/DBF4 (Homo sapiens, UniProt O00311); assay: biochemical; conditions: read-out: % enzyme activity, 1 μM; Run 1, Run 2
DLK/MAP3K12 = target: T3, DLK/MAP3K12 (Homo sapiens, UniProt Q12852); assay: biochemical; conditions: read-out: % enzyme activity, 1 μM; Run 1, Run 2
T3 sequence (Q12852 1-859): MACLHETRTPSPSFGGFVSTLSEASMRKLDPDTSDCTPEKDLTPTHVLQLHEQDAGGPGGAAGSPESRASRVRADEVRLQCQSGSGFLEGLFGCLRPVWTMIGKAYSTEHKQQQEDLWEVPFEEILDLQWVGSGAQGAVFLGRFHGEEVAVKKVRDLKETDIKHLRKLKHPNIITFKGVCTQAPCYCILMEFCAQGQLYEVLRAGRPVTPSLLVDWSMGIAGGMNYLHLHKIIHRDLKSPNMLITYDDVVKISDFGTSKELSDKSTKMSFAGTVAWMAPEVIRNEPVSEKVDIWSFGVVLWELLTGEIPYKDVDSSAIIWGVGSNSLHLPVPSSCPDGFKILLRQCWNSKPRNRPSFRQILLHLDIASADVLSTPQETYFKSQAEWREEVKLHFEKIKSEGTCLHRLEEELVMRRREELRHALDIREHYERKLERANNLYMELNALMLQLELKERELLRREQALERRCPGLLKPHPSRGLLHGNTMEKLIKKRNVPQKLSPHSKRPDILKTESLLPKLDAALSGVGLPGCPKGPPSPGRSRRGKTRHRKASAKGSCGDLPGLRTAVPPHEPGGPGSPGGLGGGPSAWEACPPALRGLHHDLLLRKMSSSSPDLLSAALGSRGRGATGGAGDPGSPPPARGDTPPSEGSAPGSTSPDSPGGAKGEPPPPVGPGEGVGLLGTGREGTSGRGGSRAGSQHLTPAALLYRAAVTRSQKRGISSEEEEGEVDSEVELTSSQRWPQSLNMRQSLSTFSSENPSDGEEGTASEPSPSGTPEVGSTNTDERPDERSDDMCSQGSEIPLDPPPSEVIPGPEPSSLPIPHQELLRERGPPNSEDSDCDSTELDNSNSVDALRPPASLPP

PKN3/PRK3 = PKN3/PRK3 (Homo sapiens, UniProt Q6P5Z2); assay: biochemical; conditions: read-out: % enzyme activity, 1 μM; Run 1, Run 2
Chain of PKN3/PRK3 (Q6P5Z2 whole entry): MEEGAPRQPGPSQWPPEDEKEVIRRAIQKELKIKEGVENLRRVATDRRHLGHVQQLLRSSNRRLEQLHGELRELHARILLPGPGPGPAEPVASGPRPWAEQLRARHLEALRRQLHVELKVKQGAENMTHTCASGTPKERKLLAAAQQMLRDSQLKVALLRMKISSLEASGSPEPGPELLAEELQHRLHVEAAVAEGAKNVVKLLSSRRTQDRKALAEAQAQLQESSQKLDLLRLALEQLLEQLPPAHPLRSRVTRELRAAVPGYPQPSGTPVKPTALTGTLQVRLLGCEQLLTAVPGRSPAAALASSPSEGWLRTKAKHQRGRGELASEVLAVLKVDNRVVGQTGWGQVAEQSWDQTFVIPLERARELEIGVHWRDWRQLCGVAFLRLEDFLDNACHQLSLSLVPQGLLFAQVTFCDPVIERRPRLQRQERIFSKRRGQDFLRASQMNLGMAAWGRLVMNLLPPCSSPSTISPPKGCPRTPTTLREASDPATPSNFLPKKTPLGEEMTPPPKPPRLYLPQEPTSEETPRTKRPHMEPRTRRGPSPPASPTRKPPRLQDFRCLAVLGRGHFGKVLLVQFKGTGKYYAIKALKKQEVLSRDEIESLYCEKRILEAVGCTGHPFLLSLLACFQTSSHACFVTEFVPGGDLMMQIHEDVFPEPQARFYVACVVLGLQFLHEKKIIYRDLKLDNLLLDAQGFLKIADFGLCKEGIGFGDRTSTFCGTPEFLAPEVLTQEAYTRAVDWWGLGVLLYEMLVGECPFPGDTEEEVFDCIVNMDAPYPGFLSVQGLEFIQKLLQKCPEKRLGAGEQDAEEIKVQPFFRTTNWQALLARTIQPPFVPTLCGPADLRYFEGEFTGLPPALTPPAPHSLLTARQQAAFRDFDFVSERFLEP

SIK3 [2] = target: T2, SIK3; assay: biochemical; conditions: read-out: % enzyme activity, 1 μM; Run 1, Run 2

Chain of AURORA B (Q96GD4 whole entry): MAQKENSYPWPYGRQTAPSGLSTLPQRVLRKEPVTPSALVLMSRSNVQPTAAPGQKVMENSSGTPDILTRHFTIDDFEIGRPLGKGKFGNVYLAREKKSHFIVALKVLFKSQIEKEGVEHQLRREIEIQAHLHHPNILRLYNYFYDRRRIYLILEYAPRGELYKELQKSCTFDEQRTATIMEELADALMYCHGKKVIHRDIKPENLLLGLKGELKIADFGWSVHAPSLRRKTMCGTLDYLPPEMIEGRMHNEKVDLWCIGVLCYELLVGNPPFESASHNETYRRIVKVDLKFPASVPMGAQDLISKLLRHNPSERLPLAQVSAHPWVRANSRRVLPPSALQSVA

| Structure (SMILES) | % enzyme activity at 1 μM (BRAF) | % enzyme activity (AURORA B) [%] | % enzyme activity (CK2a2) [%] | % enzyme activity (EPHB4) [%] | % enzyme activity (MARK3) [%] | % enzyme activity (PKAcg) [%] | % enzyme activity (PKCb1) [%] | % enzyme activity (SIK3 [1]) [%] | remaining activity at 1 µM (CDC7/DBF4) [%] | remaining activity at 1 µM (DLK/MAP3K12) [%] | remaining activity at 1 µM (PKN3/PRK3) [%] | remaining activity at 1 µM (SIK3 [2]) [%] |
| --- | --- | --- | --- | --- | --- | --- | --- | --- | --- | --- | --- | --- |
| COc1cc(-c2cncc(-c3ccc(N4CCN(C)CC4)cc3)c2C)cc(F)c1C(N)=O [Compound 26a, 2-Fluoro-6-methoxy-4-(4-methyl-5-(4-(4-methylpiperazin-1-yl)phenyl)pyridin-3-yl)benzamide] | 28.8% | 100.58 | 92.27 | 93.42 | 82.91 | 93.99 | 82.63 | 58.19 | 92.2 | 93.7 | 95 | 59.5 |
| COc1cc(-c2cncc(-c3ccc(N4C[C@@H](C)N(C)[C@@H](C)C4)cc3)c2C)cc(F)c1C(N)=O [Compound 26c, 2-Fluoro-6-methoxy-4-(4-methyl-5-(4-((3R,5S)-3,4,5-trimethylpiperazin-1-yl)phenyl)pyridin-3-yl)benzamide] | 41.1% and 40.5% | 104.62 | 98.98 | 91.07 | 93.66 | 98.97 | 83.58 | 82.93 | 94.2 | 99.2 | 98.4 | 89 |
